Key:
Experiment in all cases: Test B pre-/postemergence plant response
Assay type in all cases: in vivo
[1] = system: yellow nutsedge (Cyperus esculentus); conditions: for Nutsedge, Yellow plant response rating (0 to 100 scale): 62 g ai/ha, 0 is no effect, 13 to 15 days
In short: (§1)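 Each species received compound formulated in non-phytotoxic solvent with surfactant, either at planting into a loam and sand blend or as a foliar spray once plants reached 2 to 18 cm in peat-based medium. Plants stayed in the greenhouse 13 to 15 days before visual evaluation against controls, scored 0 (no effect) to 100 (complete control).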

[2] = system: lambsquarters (Chenopodium album); conditions: for Lambsquarters plant response rating (0 to 100 scale): 62 g ai/ha, 0 is no effect, 13 to 15 days
In short: as §1

[3] = system: goosegrass (Eleusine indica); conditions: for Goosegrass plant response rating (0 to 100 scale): 62 g ai/ha, 0 is no effect, 13 to 15 days
In short: as §1

[4] = system: Surinam grass (Brachiaria decumbens); conditions: for Plant response rating, Surinam Grass: Postemergence, scale 0 to 100 (0 no effect, 100 complete control)
In short: as §1

[5] = system: ragweed (common ragweed, Ambrosia elatior); conditions: for Ragweed plant response rating (0 to 100 scale): 62 g ai/ha, postemergence, 0 is no effect, 100 is complete control, 13 to 15 days; for Plant response rating, Ragweed: Postemergence, scale 0 to 100 (0 no effect, 100 complete control)
In short: as §1

[6] = system: pigweed (Amaranthus retroflexus); conditions: for Pigweed plant response rating (0 to 100 scale): 62 g ai/ha, 0 is no effect, 13 to 15 days
In short: as §1

[7] = system: downy bromegrass (Bromus tectorum); conditions: for Bromegrass, Downy plant response rating (0 to 100 scale): 62 g ai/ha, 0 is no effect, 13 to 15 days
In short: as §1

[8] = system: wheat (Triticum aestivum); conditions: for Wheat plant response rating (0 to 100 scale): 62 g ai/ha, postemergence, 0 is no effect, 100 is complete control, 13 to 15 days; for Plant response rating, Wheat: Postemergence, 125 g ai/ha, scale 0 to 100 (0 no effect, 100 complete control)
In short: as §1

[9] = system: large crabgrass (Digitaria sanguinalis); conditions: for Crabgrass, Large plant response rating (0 to 100 scale): 62 g ai/ha, 0 is no effect, 13 to 15 days
In short: as §1

[10] = system: woolly cupgrass (Eriochloa villosa); conditions: for Cupgrass, Woolly plant response rating (0 to 100 scale): 62 g ai/ha, 0 is no effect, 13 to 15 days
In short: as §1

[11] = system: Italian ryegrass (Lolium multiflorum); conditions: for Ryegrass, Italian plant response rating (0 to 100 scale): 62 g ai/ha, postemergence, 0 is no effect, 100 is complete control, 13 to 15 days; for Plant response rating, Ryegrass, Italian: Postemergence, scale 0 to 100 (0 no effect, 100 complete control)
In short: as §1

[12] = system: velvetleaf (Abutilon theophrasti); conditions: for Velvetleaf plant response rating (0 to 100 scale): 62 g ai/ha, postemergence, 0 is no effect, 100 is complete control, 13 to 15 days; for Plant response rating, Velvetleaf: Postemergence, scale 0 to 100 (0 no effect, 100 complete control)
In short: as §1

[13] = system: green foxtail (Setaria viridis); conditions: for Foxtail, Green plant response rating (0 to 100 scale): 62 g ai/ha, 0 is no effect, 13 to 15 days
In short: as §1

[14] = 31 g ai/ha, postemergence, scale 0 to 100, 0 is no effect, 100 is complete control
[15] = postemergence, 100 is complete control
[16] = Postemergence, 125 g ai/ha, scale 0 to 100 (0 no effect, 100 complete control)
[17] = Postemergence, 250 g ai/ha, scale 0 to 100 (0 no effect, 100 complete control)

## COCCn1c(-c2cccc(C)c2)ncc(C(=O)C2=C(O)CCCC2=O)c1=O [Compound 117]
[1]; [14]
  Plant response rating, Nutsedge, Yellow: 0
[1]; [15]
  Nutsedge, Yellow plant response rating (0 to 100 scale): 0
[1]; [16]
  Plant response rating, Nutsedge, Yellow: 25
[1]; [17]
  Plant response rating, Nutsedge, Yellow: 35
[2]; [14]
  Plant response rating, Lambsquarters: 95
[2]; [15]
  Lambsquarters plant response rating (0 to 100 scale): 98
[2]; [16]
  Plant response rating, Lambsquarters: 100
[2]; [17]
  Plant response rating, Lambsquarters: 100
[3]; [14]
  Plant response rating, Goosegrass: 45
[3]; [15]
  Goosegrass plant response rating (0 to 100 scale): 75
[3]; [16]
  Plant response rating, Goosegrass: 75
[3]; [17]
  Plant response rating, Goosegrass: 85
[4]; 62 g ai/ha, postemergence, 0 is no effect, 100 is complete control, 13 to 15 days
  Surinam Grass plant response rating (0 to 100 scale): 75
[4]; 250 g ai/ha
  Plant response rating, Surinam Grass: 85
[5]
  Ragweed plant response rating (0 to 100 scale): 75
[5]; 125 g ai/ha
  Plant response rating, Ragweed: 90
[5]; 250 g ai/ha
  Plant response rating, Ragweed: 98
[6]; [14]
  Plant response rating, Pigweed: 95
[6]; [15]
  Pigweed plant response rating (0 to 100 scale): 98
[6]; [17]
  Plant response rating, Pigweed: 100
[7]; [14]
  Plant response rating, Bromegrass, Downy: 5
[7]; [15]
  Bromegrass, Downy plant response rating (0 to 100 scale): 10
[7]; [16]
  Plant response rating, Bromegrass, Downy: 15
[7]; [17]
  Plant response rating, Bromegrass, Downy: 45
[8]
  Wheat plant response rating (0 to 100 scale): 5
  Plant response rating, Wheat: 20
[9]; [14]
  Plant response rating, Crabgrass, Large: 75
[9]; [15]
  Crabgrass, Large plant response rating (0 to 100 scale): 80
[9]; [16]
  Plant response rating, Crabgrass, Large: 95
[9]; [17]
  Plant response rating, Crabgrass, Large: 95
[10]; [14]
  Plant response rating, Cupgrass, Woolly: 65
[10]; [15]
  Cupgrass, Woolly plant response rating (0 to 100 scale): 85
[10]; [16]
  Plant response rating, Cupgrass, Woolly: 95
[10]; [17]
  Plant response rating, Cupgrass, Woolly: 98
[11]
  Ryegrass, Italian plant response rating (0 to 100 scale): 10
[11]; 125 g ai/ha
  Plant response rating, Ryegrass, Italian: 15
[11]; 250 g ai/ha
  Plant response rating, Ryegrass, Italian: 50
[12]
  Velvetleaf plant response rating (0 to 100 scale): 85
[12]; 125 g ai/ha
  Plant response rating, Velvetleaf: 95
[12]; 250 g ai/ha
  Plant response rating, Velvetleaf: 100
[13]; [14]
  Plant response rating, Foxtail, Green: 50
[13]; [15]
  Foxtail, Green plant response rating (0 to 100 scale): 70
[13]; [16]
  Plant response rating, Foxtail, Green: 80
[13]; [17]
  Plant response rating, Foxtail, Green: 95

## COCCCn1c(-c2cccc(C)c2)ncc(C(=O)C2=C(O)CCCC2=O)c1=O [Compound 118, 5-[(2-hydroxy-6-oxo-1-cyclohexane-1-yl)carbonyl]-3-(3-methoxypropyl)-2-(3-methylphenyl)-4(3H)-pyrimidinone]
[1]; [14]
  Plant response rating, Nutsedge, Yellow: 35
[1]; [15]
  Nutsedge, Yellow plant response rating (0 to 100 scale): 45
[1]; [16]
  Plant response rating, Nutsedge, Yellow: 65
[1]; [17]
  Plant response rating, Nutsedge, Yellow: 65
[2]; [14]
  Plant response rating, Lambsquarters: 85
[2]; [15]
  Lambsquarters plant response rating (0 to 100 scale): 98
[2]; [16]
  Plant response rating, Lambsquarters: 100
[2]; [17]
  Plant response rating, Lambsquarters: 100
[3]; [14]
  Plant response rating, Goosegrass: 55
[3]; [15]
  Goosegrass plant response rating (0 to 100 scale): 65
[3]; [16]
  Plant response rating, Goosegrass: 80
[3]; [17]
  Plant response rating, Goosegrass: 90
[4]; 125 g ai/ha
  Plant response rating, Surinam Grass: 75
[4]; 250 g ai/ha
  Plant response rating, Surinam Grass: 90
[5]
  Ragweed plant response rating (0 to 100 scale): 85
[5]; 125 g ai/ha
  Plant response rating, Ragweed: 95
[5]; 250 g ai/ha
  Plant response rating, Ragweed: 98
[6]; [14]
  Plant response rating, Pigweed: 85
[6]; [15]
  Pigweed plant response rating (0 to 100 scale): 100
[6]; [16]
  Plant response rating, Pigweed: 100
[6]; [17]
  Plant response rating, Pigweed: 100
[7]; [14]
  Plant response rating, Bromegrass, Downy: 0
[7]; [15]
  Bromegrass, Downy plant response rating (0 to 100 scale): 5
[7]; [16]
  Plant response rating, Bromegrass, Downy: 30
[7]; [17]
  Plant response rating, Bromegrass, Downy: 35
[8]
  Wheat plant response rating (0 to 100 scale): 5
  Plant response rating, Wheat: 5
[9]; [14]
  Plant response rating, Crabgrass, Large: 70
[9]; [15]
  Crabgrass, Large plant response rating (0 to 100 scale): 75
[9]; [16]
  Plant response rating, Crabgrass, Large: 80
[9]; [17]
  Plant response rating, Crabgrass, Large: 95
[10]; [14]
  Plant response rating, Cupgrass, Woolly: 65
[10]; [15]
  Cupgrass, Woolly plant response rating (0 to 100 scale): 70
[10]; [16]
  Plant response rating, Cupgrass, Woolly: 75
[10]; [17]
  Plant response rating, Cupgrass, Woolly: 95
[11]
  Ryegrass, Italian plant response rating (0 to 100 scale): 5
[11]; 125 g ai/ha
  Plant response rating, Ryegrass, Italian: 5
[11]; 250 g ai/ha
  Plant response rating, Ryegrass, Italian: 60
[12]
  Velvetleaf plant response rating (0 to 100 scale): 75
[12]; 125 g ai/ha
  Plant response rating, Velvetleaf: 98
[12]; 250 g ai/ha
  Plant response rating, Velvetleaf: 100
[13]; [14]
  Plant response rating, Foxtail, Green: 50
[13]; [15]
  Foxtail, Green plant response rating (0 to 100 scale): 85
[13]; [16]
  Plant response rating, Foxtail, Green: 95
[13]; [17]
  Plant response rating, Foxtail, Green: 95
